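Assay format: 96-well plates, 48-hour exposure. Abbreviation: GI50, concentration required for 50% inhibition of growth.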 The source made the active and inactive calls. Cut-off read from the data, not from the text of the source: active = GI50 up to about 1.1 µM and inactive = higher.
Key:
Assay in all cases: NCI-60 cell line screen, 48 h
[1] = system: A549
[2] = system: EKVX
[3] = system: HCC 2998
[4] = system: HL-60
[5] = system: Hs-578T
[6] = system: OVCAR-5
[7] = system: PC-3
[8] = system: RPMI-8226
[9] = system: SF-539
[10] = system: SK-OV-3
[11] = system: SNB-75
[12] = system: T47D
[13] = system: TK-10
[14] = system: U-251
[15] = system: UO-31
[16] = system: DU-145
[17] = system: MCF7
[18] = system: SF-295
[19] = system: NCI-H522

Measured: GI50

O=C(Nc1ccc(C(F)(F)F)cc1)NC(F)(F)F
inactive: [1] > 100 µM | [2] > 100 µM | [3] > 100 µM | [4] > 100 µM | [5] > 100 µM | [6] > 100 µM | [7] > 100 µM | [8] > 100 µM | [9] > 100 µM | [10] > 100 µM | [11] > 100 µM | [12] > 100 µM | [13] 35.9 µM | [14] > 100 µM | [15] > 100 µM

O=S(=O)(O)c1cc(Cl)c(O)c2ncc(Cl)cc12
inactive: [1] 77.1 µM | [16] > 100 µM | [2] 69 µM | [3] > 100 µM | [17] 51.8 µM | [6] > 100 µM | [7] > 100 µM | [8] 45.2 µM | [18] > 100 µM | [9] 50.4 µM | [11] > 100 µM | [12] > 100 µM | [14] > 100 µM | [15] 57 µM

CC(=O)OCC1OC(c2nc3ccccc3s2)=CC(OC(C)=O)C1OC(C)=O (stereo unspecified)
inactive: [1] > 100 µM | [16] > 100 µM | [2] > 100 µM | [4] 22.3 µM | [5] > 100 µM | [17] > 100 µM | [19] > 100 µM | [6] > 100 µM | [7] > 100 µM | [8] 37.3 µM | [18] > 100 µM | [9] > 100 µM | [11] 22.2 µM | [13] > 100 µM | [14] 89.9 µM | [15] > 100 µM

N=NCC(=O)OC(COCc1ccccc1)COCc1ccccc1
inactive: [16] 36.3 µM | [2] > 100 µM | [3] > 100 µM | [4] 56.6 µM | [17] 65 µM | [19] > 100 µM | [6] > 100 µM | [7] 70 µM | [8] > 100 µM | [18] 95.5 µM | [10] > 100 µM | [13] > 100 µM | [14] > 100 µM | [15] 21.9 µM

Cc1ccc(S(=O)(=O)N/N=C2\C=CC3(CC2)C(=O)N(I)c2ccccc23)cc1 (stereo unspecified)
inactive: [1] > 100 µM | [16] > 10 µM | [2] > 100 µM | [3] > 100 µM | [6] > 100 µM | [7] 63.1 µM | [8] 39.3 µM | [18] 41.5 µM | [9] 11 µM | [10] > 100 µM | [11] > 100 µM | [12] > 100 µM | [13] > 100 µM | [14] > 100 µM | [15] > 100 µM

CN1CCN(C2=NCCO2)CC1
inactive: [1] > 100 µM | [16] > 100 µM | [2] > 100 µM | [3] > 100 µM | [4] > 100 µM | [17] > 100 µM | [19] > 100 µM | [6] > 100 µM | [7] > 100 µM | [8] > 100 µM | [18] > 100 µM | [9] > 100 µM | [10] > 100 µM | [11] > 100 µM | [12] > 100 µM | [13] > 100 µM | [14] > 100 µM | [15] > 100 µM

COC(=O)c1cc(C#N)[nH]c1-c1ccc(C)s1
inactive: [1] 46.2 µM | [16] 30.6 µM | [2] 19.5 µM | [3] > 100 µM | [19] 36.1 µM | [6] 47.5 µM | [7] 8.39 µM | [8] 51.3 µM | [18] 38.8 µM | [9] > 100 µM | [10] 55.5 µM | [11] 25.3 µM | [12] 25.6 µM | [14] 95.5 µM | [15] 42.9 µM

NS(=O)(=O)c1nnc(NC(=O)c2cccc([N+](=O)[O-])c2)s1
inactive: [1] > 100 µM | [16] > 100 µM | [2] > 100 µM | [3] > 100 µM | [4] > 100 µM | [5] > 100 µM | [17] > 100 µM | [19] > 100 µM | [6] > 100 µM | [8] > 100 µM | [18] > 100 µM | [9] > 100 µM | [10] > 100 µM | [12] > 100 µM | [13] > 100 µM | [14] > 100 µM | [15] > 100 µM

C[C@]12CCC3[C@@H](CCC45OC4C(=O)CC[C@]35C)C1Cc1cnn(-c3ccc(F)cc3)c1N2 (stereo partly specified)
inactive: [1] 65.5 µM | [2] 49.9 µM | [4] 17.6 µM | [19] 15 µM | [8] 19.5 µM | [18] 39 µM | [10] 58.1 µM | [11] 38.6 µM | [13] > 100 µM | [14] 28.4 µM | [15] 87.9 µM

O=C(CNc1ccccc1[N+](=O)[O-])Nn1cnc2ccc(S(=O)(=O)Nc3ccccc3[N+](=O)[O-])cc2c1=O
inactive: [1] > 100 µM | [16] > 100 µM | [2] > 100 µM | [3] > 100 µM | [4] > 100 µM | [5] 22.1 µM | [17] > 100 µM | [19] > 100 µM | [6] > 100 µM | [7] > 100 µM | [8] > 100 µM | [18] > 100 µM | [9] > 100 µM | [10] > 100 µM | [11] > 100 µM | [13] > 100 µM | [14] > 100 µM | [15] 73.8 µM

CN(CCNC(=O)c1nn(C)c2c1Cc1ccccc1-2)CCNC(=O)c1nn(C)c2c1Cc1ccccc1-2
inactive: [1] 15.8 µM | [16] 17.9 µM | [2] 23.2 µM | [3] 12.5 µM | [4] 12.9 µM | [17] 11.1 µM | [19] 16.2 µM | [6] 26.8 µM | [7] 18.4 µM | [18] 16 µM | [9] 14.3 µM | [10] 18.2 µM | [11] 14.4 µM | [12] 22.5 µM | [13] 15.7 µM | [14] 15.6 µM | [15] 10.4 µM

O=C1C2CC=CCC2C(=O)N1n1c(Cc2ccccc2)n[nH]c1=O (stereo unspecified)
inactive: [1] > 100 µM | [2] > 100 µM | [3] > 100 µM | [5] > 100 µM | [17] > 100 µM | [19] > 100 µM | [6] > 100 µM | [7] > 100 µM | [8] > 100 µM | [18] > 100 µM | [9] > 100 µM | [10] > 100 µM | [12] > 100 µM | [13] > 100 µM | [14] > 100 µM | [15] > 100 µM

CC(=O)/C(=C/N1C(=O)CC(=O)NC1=S)C(=O)Nc1ccccc1C
inactive: [1] 34.8 µM | [16] 97.3 µM | [2] 38.5 µM | [3] 29.4 µM | [4] 49 µM | [17] 60.4 µM | [6] > 100 µM | [18] 84.3 µM | [9] 32.3 µM | [10] > 100 µM | [11] 91.6 µM | [12] 81.3 µM | [13] > 100 µM | [14] 36 µM | [15] > 100 µM
